Tests used:
in vitro = settings: pig, PAMPA
[1] = target: T1, Electrophorus electricus (Ee) AChE (Electrophorus electricus, UniProt O42275); assay: Acetylcholinesterase inhibitory activity (Ellman method); format: biochemical; settings: mean ± SEM, read-out: EeAChE IC50
T1 construct: purchased Sigma-Aldrich
Protocol: The inhibitory activity against Electrophorus electricus (Ee) AChE (Sigma–Aldrich) was evaluated spectrophotometrically by the method of Ellman et al.[56] […] Inhibition curves were performed in duplicates using at least 10 increasing concentrations of inhibitors and preincubated for 20 min at 37 °C before adding the substrate. One duplicate sample without inhibitor was always present to yield 100% of AChE activity.
Results are expressed as mean ± SEM of at least 4 experiments performed in duplicate.

[2] = commercial drugs for PAMPA-BBB assay validation; cited from earlier work

T1 sequence (O42275 24-633): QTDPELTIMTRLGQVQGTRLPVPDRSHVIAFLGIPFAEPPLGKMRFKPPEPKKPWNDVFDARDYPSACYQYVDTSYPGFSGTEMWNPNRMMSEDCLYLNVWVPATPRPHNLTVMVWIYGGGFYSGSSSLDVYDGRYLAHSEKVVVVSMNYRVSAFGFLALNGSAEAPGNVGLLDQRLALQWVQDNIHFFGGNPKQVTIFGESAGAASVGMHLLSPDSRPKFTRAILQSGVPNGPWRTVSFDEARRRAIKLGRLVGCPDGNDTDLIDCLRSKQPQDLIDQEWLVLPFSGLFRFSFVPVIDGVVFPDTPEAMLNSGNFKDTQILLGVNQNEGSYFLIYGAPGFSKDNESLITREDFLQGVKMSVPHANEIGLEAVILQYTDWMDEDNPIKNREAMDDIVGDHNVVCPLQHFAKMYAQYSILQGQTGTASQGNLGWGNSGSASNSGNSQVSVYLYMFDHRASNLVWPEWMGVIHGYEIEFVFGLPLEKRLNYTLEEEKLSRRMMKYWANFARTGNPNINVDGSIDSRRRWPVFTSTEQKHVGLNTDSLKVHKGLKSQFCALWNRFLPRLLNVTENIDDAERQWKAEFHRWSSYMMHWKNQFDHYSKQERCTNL

| Compound | Papp (in vitro) [×10⁻⁶ cm/s] | IC50 [1] [nM] | Pe, literature value [2] |
| --- | --- | --- | --- |
| CC1=CC2Cc3nc4cc(Cl)ccc4c(NCCCN4CCCCC4)c3C(C1)C2 (racemic) [compound 7, 3-Chloro-6,7,10,11-tetrahydro-9-methyl-12-[(3-piperidinopropyl)amino]-7,11-methanocycloocta[b]quinoline] | 5.9 ± 0.4 | 48.4 ± 2.7 |  |
| CC1=CC2Cc3nc4cc(Cl)ccc4c(NCCCN4CCOCC4)c3C(C1)C2 (racemic) [compound 8, (±)-3-Chloro-6,7,10,11-tetrahydro-9-methyl-12-[(3-morpholinopropyl)amino]-7,11-methanocycloocta[b]quinoline] | 15 ± 1 | 13.3 ± 0.8 |  |
| CC1=CC2Cc3nc4cc(Cl)ccc4c(NCCCCC#N)c3C(C1)C2 (centres unmarked) [4a] |  | 26.9 ± 1.1 |  |
| CC1=CC2Cc3nc4cc(Cl)ccc4c(NCCCCCC#N)c3C(C1)C2 (centres unmarked) [4b] | 12.4 ± 0.6 | 31.1 ± 3.1 |  |
| CC1=CC2Cc3nc4cc(Cl)ccc4c(NCCCCCCCCCC#N)c3C(C1)C2 (centres unmarked) [4f] | 11.3 ± 1.2 | 9.67 ± 0.89 |  |
| CC1=CC2Cc3nc4cc(Cl)ccc4c(NCc4ccc(C#N)cc4)c3C(C1)C2 (centres unmarked) [4h] | 19.3 ± 1.2 | 158 ± 21 |  |
| CC1=CC2Cc3nc4cc(Cl)ccc4c(NCCCCCCCN)c3C(C1)C2 (centres unmarked) [5c] | 7.6 ± 0.7 | 36 ± 3.5 |  |
| CC1=CC2Cc3nc4cc(Cl)ccc4c(NCCCCCCCCN)c3C(C1)C2 (centres unmarked) [5d] | 9.8 ± 0.6 | 17.3 ± 1.2 |  |
| CC1=CC2Cc3nc4cc(Cl)ccc4c(NCCCCCCCCCN)c3C(C1)C2 (centres unmarked) [5e] | 7.1 ± 0.7 | 16.4 ± 1.8 |  |
| CC1=CC2Cc3nc4cc(Cl)ccc4c(NCCCCCCCCCCCN)c3C(C1)C2 (centres unmarked) [5g] | 4 ± 0.2 | 35.3 ± 3.9 |  |
| CC1=C[C@@H]2Cc3nc4cc(Cl)ccc4c(NCc4ccc(CN)cc4)c3[C@H](C1)C2 [5h] | 11.7 ± 1.1 |  |  |
| CC1=CC2Cc3nc4cc(Cl)ccc4c(NCCCCCCNC(=N)N)c3C(C1)C2 (centres unmarked) [6b, 1-{6-[(3-Chloro-6,7,10,11-tetrahydro-9-methyl-7,11-methanocycloocta[b]quinolin-12-yl)amino]hexyl}guanidine] | 2.9 ± 0.4 | 11.8 ± 1.3 |  |
| CC1=CC2Cc3nc4cc(Cl)ccc4c(NCCCCCCCCCNC(=N)N)c3C(C1)C2 (centres unmarked) [6e, 1-{9-[(3-Chloro-6,7,10,11-tetrahydro-9-methyl-7,11-methanocycloocta[b]quinolin-12-yl)amino]nonyl}guanidine] | 5.4 ± 0.3 | 10.6 ± 0.8 |  |
| N#CCCCCCCNc1c2c(nc3ccccc13)CCCC2 [11c, 7-[(1,2,3,4-Tetrahydroacridin-9-yl)amino]heptanenitrile] | 11.2 ± 0.2 | 53.9 ± 3 |  |
| N#CCCCCCCCCNc1c2c(nc3ccccc13)CCCC2 [11e, 9-[(1,2,3,4-Tetrahydroacridin-9-yl)amino]nonanenitrile] | 7.6 ± 0.35 | 44.9 ± 1.6 |  |
| N#CCCCCCCNc1c2c(nc3cc(Cl)ccc13)CCCC2 [12c, 7-[(6-Chloro-1,2,3,4-tetrahydroacridin-9-yl)amino]heptanenitrile] | 16.7 ± 0.9 |  |  |
| N#CCCCCCCCNc1c2c(nc3cc(Cl)ccc13)CCCC2 [12d, 8-[(6-Chloro-1,2,3,4-tetrahydroacridin-9-yl)amino]octanenitrile] | 14.7 ± 0.8 | 46 ± 6 |  |
| N#CCCCCCCCCNc1c2c(nc3cc(Cl)ccc13)CCCC2 [12e, 9-[(6-Chloro-1,2,3,4-tetrahydroacridin-9-yl)amino]nonanenitrile] | 5.4 ± 0.4 | 24.3 ± 4.5 |  |
| NCCCCCCCNc1c2c(nc3ccccc13)CCCC2 [13c] | 7.4 ± 0.1 | 23.9 ± 2.6 |  |
| NCCCCCCCCCNc1c2c(nc3ccccc13)CCCC2 [13e] | 6.9 ± 0.5 | 15.6 ± 1.5 |  |
| NCCCCCCCCCNc1c2c(nc3cc(Cl)ccc13)CCCC2 [14e] | 5.8 ± 0.3 | 14.5 ± 1.6 |  |
| N=C(N)NCCCCCCCNc1c2c(nc3ccccc13)CCCC2 [15c, 1-{7-[(1,2,3,4-Tetrahydroacridin-9-yl)amino]heptyl}guanidine] | 5.9 ± 0.3 | 23.9 ± 2.6 |  |
| N=C(N)NCCCCCCCCCNc1c2c(nc3ccccc13)CCCC2 [15e, 1-{9-[(1,2,3,4-Tetrahydroacridin-9-yl)amino]nonyl}guanidine] | 6.5 ± 0.3 | 30.5 ± 1.9 |  |
| N=C(N)NCCCCCCCCCNc1c2c(nc3cc(Cl)ccc13)CCCC2 [16e, 1-{9-[(6-Chloro-1,2,3,4-tetrahydroacridin-9-yl)amino]nonyl}guanidine] | 6.7 ± 0.4 | 16.4 ± 1.5 |  |
| CN(C)CCCN1c2ccccc2Sc2ccccc21 [Promazine] |  |  | 8.8 10^−6 cm s^−1 |
| CC1=CC2Cc3nc4cc(Cl)ccc4c(N)c3C(C1)C2 (centres unmarked) [compound 1, huprine Y, reference compound] |  | 0.3 ± 0.01 |  |

— paper PMC5080452 (Bioorganic & Medicinal Chemistry, 2016)
